Measured values: patent publication US20210181215A1, “TREATMENT AND DIAGNOSIS OF ANAEMIA” (THE UNIVERSITY COURT OF THE UNIVERSITY OF ABERDEEN, priority 2017, published 2021)
Entries after “also recorded” stand apart in the source; their conditions may differ.

Assays:
[1] = system: uptake of RBC from patients with SCD (HbSS) by HMDM; assay: Efferocytosis assay: uptake of RBC from patients with SCD by HMDM; assay type: cell-based, human; details: 3 h assay, mannan 10 mg/ml, chitin 50 μg/ml, anti-CD206 10 μg/ml
Procedure: (§1) For clear identification of efferocytosis by microscopy, RBC were stained with cell trace far red (CTFR; Molecular Probes) according to manufacturer's instructions. RBC were added to HMDM at 5×10^7 cells per well for three hours before gentle removal and fixation with 4% paraformaldehyde. To identify cells bound but not and ingested by HMDM the cells were stained with anti-glycophorin A/B FITC (HIR2, Biolegend).
(§2) Ligand binding of CD206 was blocked with antibody clone 15.2 (10 μg/ml; BioLegend) by adding antibody or isotype control (10 μg/ml mouse IgG1 kappa clone 107.3, BD Biosciences) for 60 minutes prior to three hour efferocytosis assay and were not removed.
(§3) Mannan (10 mg/ml), chitin (50 μg/ml) and laminarin (10 μg/ml; all Sigma Aldrich) were applied for 60 minutes prior to three hour efferocytosis/phagocytosis assay and were not removed.
(§4) Cells were imaged at 32 times magnification using Immuno-Fluorescent Microscope (Zeiss).

[2] = system: oxidised RBC uptake by HMDM; assay: Efferocytosis assay: uptake of oxidised RBC by human monocyte derived macrophages; assay type: cell-based; details: RBC oxidised with CuSO4/ascorbic acid, 3 h assay, mannan 10 mg/ml, chitin 50 μg/ml, laminarin 10 μg/ml, anti-CD206 clone 15.2 10 μg/ml applied 60 min before, siRNA against MRC-1
Procedure: RBC and SHSy5y neuronal cells were incubated with copper sulphate (CuSO4, 0.2 mM) and ascorbic acid (5 mM) for 60 minutes (RBC) or 30 minutes (SHSy5y) at 37° C. in DMEM with 4.5 g/L glucose. Cells were then washed in PBS three times prior to assays.
as §1, §2, §3, §4
To access percentage MR positive spindle/small round macrophages, anti-MR antibody (unlabelled clone 19.2) was stained with anti-mouse PE secondary antibody. Only spindle/small round macrophage population was examined as this is the subpopulation that expresses MR in wild type macrophages. SiRNA ([…], antisense, concentration Life Technologies) against mannose receptor (MRC-1) in humans was transfected into primary macrophages (RNAiMax, Life Technologies). (n=4 donors for all SiRNA experiments. Autologous red blood cells were used with macrophages.) Mannose receptor expression was established by microscopy using MR-Alexa-488 staining (described above) in the small non-granular macrophage sub-population by merging bright field and mannose receptor fluorescence staining.

[3] = system: untreated RBC uptake by HMDM; assay: Efferocytosis assay: uptake of untreated RBC by HMDM; assay type: cell-based, human; details: 3 h assay
Procedure: as §1, §3, §4

[4] = target: T1, Galanthus nivalis lectin (GNA) (Galanthus nivalis, UniProt P30617); assay: Flow cytometry blockade of GNA lectin binding to the RBC surface; details: oxidised / SCD RBC; lectin pre-incubated with mannan 5 mg/ml for 15 min
T1 construct: purchased Vector Laboratories B1245
T1 sequence (P30617 24-128 limits assumed): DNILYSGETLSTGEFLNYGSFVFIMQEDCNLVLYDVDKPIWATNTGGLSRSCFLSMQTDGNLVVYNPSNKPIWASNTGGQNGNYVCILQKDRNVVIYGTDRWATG
Procedure: RBC, approximately 5×10^6 per test, were washed three times in PBS, and then incubated in calcium buffer with biotinylated GNA (4 μg/ml, Vector Laboratories, B1245) or in PBS for PNA-FITC (2 μg/ml Sigma Aldrich L7381) for 30 minutes in calcium buffer at room temperature (protected from light). Cells were then washed and incubated with streptavidin PE-Cy7 (0.27 μg/ml; eBioscience) or PE (0.67 μg/ml; BD Pharmingen) for 30 min at room temperature. Cells were washed and analysed.
(§5) For blockade testing, Lectin or FC fusion were pre-incubated with mannan (5 mg/ml, unless otherwise stated) for 15 minutes at room temperature. Mixture of mannan and Lectin or FC fusion was then incubated with washed RBC and compared to binding of Lectin or FC fusion without mannan.
(§6) Samples were acquired on FACSCalibur (BD) and analysed using FlowJo v10.0 (Treestar) software. The normalised geomean was calculated by subtracting the geomean of the secondary only paired controls. For PNA-FITC analysis, normalised geomean was calculated by subtracting geomean of unstained RBC (PBS incubation) control.

[5] = system: phagocytosis of beads by HMDM; assay: Bead phagocytosis assay with HMDM (control); assay type: cell-based, human; details: 3 h
Procedure: Coumarin stained Fluoresbrite microparticles (8 μm; Polysciences, Inc.) were added to HMDM at 5×107 beads per well for three hours before gentle removal and suspension in PBS for immediate imaging.
as §2, §3, §4

[6] = system: carbohydrate binding domain of the mannose receptor CD206 (MR-CRD); assay: Flow cytometry blockade of MR-CRD (CD206 carbohydrate binding domain, Fc fusion) staining of oxidised RBC; design: species or system murine; details: FC fusion pre-incubated with mannan 5 mg/ml
Procedure: Humanised FC fusions of murine C-type lectins (5 μg/ml, kind gift from Gordon Brown, Screening for Ligands of C-Type Lectin-Like Receptors, Elwira PyżGordon D. Brown, 2011) were incubated with RBC for 30 minutes at room temperature in calcium buffer then detected by Alexa Fluor 647 goat anti-human secondary antibody (2 μg/ml, 109-605-098, Jackson ImmunoResearch Laboratories) incubated for 30 minutes at room temperature.
as §5, §6

Chain of carbohydrate binding domain of the mannose receptor CD206 (MR-CRD) (Q61830 645-781 limits assumed): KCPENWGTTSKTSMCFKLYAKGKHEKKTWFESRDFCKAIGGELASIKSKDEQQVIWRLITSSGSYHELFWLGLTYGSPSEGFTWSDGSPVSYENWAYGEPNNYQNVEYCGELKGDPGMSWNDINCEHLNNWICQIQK

For chitin, the “uptake of RBC from patients with SCD by HMDM” value [1] was “significantly inhibited; also recorded: blocked”, the “uptake (efferocytosis) of oxidised RBC by HMDM” value (“uptake (efferocytosis)” below) [2] was “significantly inhibited; also recorded: abrogated” and the “uptake of untreated RBC by HMDM” value [3] was “not untreated”. The “blockade of GNA binding to RBC surface (FACS)” value [4] was “inhibitable”.
In the case of laminarin, the “uptake (efferocytosis)” value [2] is reported as “not laminarin, significantly inhibited”.
In the case of mannan, the “uptake of RBC from patients with SCD by HMDM” value [1] is reported as “significantly inhibited; also recorded: blocked”, the “phagocytosis of control beads by HMDM” value [5] is reported as “no effect” and the “uptake (efferocytosis)” value [2] is reported as “significantly inhibited; also recorded: abrogated”. The “uptake (efferocytosis)” value ([2]; listed as Mannan) was “significantly blocked uptake”, the “blockade of MR-CRD staining of oxidised RBC (FACS)” value [6] was “effective blockade” and the “uptake of untreated RBC by HMDM” value [3] was “not untreated”. The “blockade of GNA binding to RBC surface (FACS)” value [4] was “effective blockade; also recorded: inhibitable”.
